In patent US20080103205A1, “Pesticidal compositions and methods of use” (priority 2006, published 2008):

Columns and labels:
Drosophila melanogaster = assay: Toxicity against adult Drosophila melanogaster, sugar solution feeding; type: in vivo
Method: Toxicity tests were conducted using mixed sex adults of D. melanogaster maintained on artificial diet in the department of entomology, Virginia Tech. Test concentrations of 6.25, 12.5, 25, 50 or 100 ppm were prepared in 0.2% dimethyl sulfoxide (DMSO) for DIDS, 9-AC, NPPB, and IAA-94. The above final concentrations were obtained after mixing them in 10 ml of 10% sugar solution. Similar preparations with 0.2% DMSO alone served as controls. One end of a cotton wick was dipped in 0.5 ml of sugar solution and placed on the glass vial containing 10 adult flies of mixed sex. Each concentration of test chemical had 5 replications. Mortality counts of flies were taken 24, 48, and 72 hrs after treatment. Insects without movement upon probing were considered dead. LC50 values and confidence intervals for each chemical were estimated using POLO PLUS software program. The data provided in Tables 3-A and 3-B below confirm that AT blockers are toxic to insects in acute exposures.

M. incognita = assay: Initial petri dish toxicity assay, M. incognita; type: in vivo; settings: Meloidogyne incognita; 100 ppm for 24 hr
Excerpt: (§1) The stilbene nucleus is a simple chemical scaffold, and excellent gains in potency can be envisioned from appropriate chemical modification. In addition, other compounds having a similar mode of action have been described, including NPPB, IAA-94, and 9-AC (FIGS. 1-3). This Example 1 describes further toxicity studies with these compounds.

H. bacteriophora = assay: Initial petri dish toxicity assay / preliminary studies, H. bacteriophora; type: in vivo, Heterorhabditis bacteriophora; settings: initial petri dish assays / preliminary studies
Excerpt: as §1
This broad cross resistance supports a role for AT blockers in the action of these compounds.

Compound | LC50 (ppm) (Drosophila melanogaster; 48 hr) | LC50 (ppm) (Drosophila melanogaster; 72 hr) | mortality at 100 ppm (M. incognita) | paralytic/lethal effect, sensitivity (H. bacteriophora)
CC1(C2CCCC2)Cc2cc(OCC(=O)O)c(Cl)c(Cl)c2C1=O (single isomer, unassigned; (+)) [IAA-94, (+)(2-cyclopentyl-6,7-dichloro-2-methyl-1-oxo-5-indanyloxy) acetic acid] | 170.05 ppm | 115.67 ppm |  | 
O=S(=O)(O)c1cc(N=C=S)ccc1/C=C/c1ccc(N=C=S)cc1S(=O)(=O)O [DIDS, trans-4,4′-diisothiocyanatostilbene-2,2′-disulfonic acid, reference compound] | 125.86 ppm | 72.82 ppm | 20% | less sensitive
